# Results as given in patent US11553713B2, “Polyalcohol, carbohydrate, nucleobase and nucleotide compositions and uses thereof” (Chunbo Zhang, priority 2015, dated 2023).
# Key:
# [1] = test system: female mosquitoes; test: Efficacy by ingestion: feeder test in 6-liter cage, death rate of female mosquitoes; format: in vivo; settings: for Death Rate within 24 hrs after treatment removed / Death Rate within 2 days after treatment removed / Death Rate within 3 days after treatment removed / Death Rate within 4 days after treatment removed / Death Rate: 10% sugar in CPDA, 24 hrs; for timing of death after ingestion (“delayed” death): after treatment was removed
# From the text: Female mosquitoes were used in the experiment because only female mosquitoes bite humans and animals and transmit infectious diseases.
# (2R)-3-fluoropropane-1,2-diol (rFOH) was used as the active agent at various concentrations. A sugar feeder containing 10% sucrose, which is a regular mosquito feeder in a laboratory setting, was used as a regular food source in free choice studies. A free choice study allows the pests to select which feeder to feed on when given two or more choices.
# In a two-choice test, a 6-liter cage was supplied with two feeders, one contained 5% rFOH and 10% sucrose in CPDA and the other one contained 10% sucrose without any rFOH or CPDA. 100 female mosquitoes were placed in the cage having the two feeders such that the mosquitoes chose freely which feeder to feed on. After 24 hours of feeding in the cage, over 80% of mosquitoes were dead. […] When the concentration of rFOH was reduced to 1% or 0.15%, its effectiveness remained the same. Over 80% of mosquitoes were dead due to 24 hours of feeding with rFOH.
# Subsequent to 24 hours of feeding, rFOH feeder was removed from the cage and a regular sugar feeder (10% sucrose) was provided. In the next day, 5-20% of residual death was observed, indicating a delayed death after rFOH ingestion.
# In a further study, mosquitoes were fasted for 24 hours before feeding to ensure that all mosquitoes have the capacity for food intake. […] Thus, fasting is not a cause of mosquito death during a series of experiments.
# The experiments determined that 0.1% rFOH was sufficient to achieve 50% death (LD50) under various conditions. In one study, 100 mosquitoes were caged in a 6-liter space and fasted for 24 hours. Subsequently, the mosquitoes were fed on two feeders giving their free choices for 0.1% rFOH containing 10% sucrose in CPDA or 10% sucrose without rFOH for 24 hours, resulting in 43% death. In a parallel study in which the cage was supplied with a single feeder, the 0.1% rFOH feeder containing 10% sucrose in CPDA, which caused 44% of death after 24 hours of feeding.
# Similar experiments as disclosed above were performed with various rFOH concentrations under various conditions. The rFOH composition contained 10% sugar in CPDA solution unless specified otherwise.
# Similar experiments as disclosed above were performed on female mosquitoes to determine LD50. The rFOH composition contained 10% sugar in CPDA solution unless specified otherwise.
# (§1) Similar experiments as disclosed above were performed on female mosquitoes using different active agents at various concentrations. The active agent composition contained 10% sugar in CPDA solution unless specified otherwise.
# [2] = test system: Escherishia coli DH5α transformed with a pcDNA3 plasmid (DH5P); test: MIC test, broth microdilution (CLSI M07-A9); format: cell-based
# Protocol: (§2) The effects of pesticides disclosed herein on various bacteria were tested by determining the minimal inhibitory concentration (MIC) of the pesticides. MIC of an antimicrobial agent is the lowest concentration of the antimicrobial agent that inhibits a given bacterial isolate from multiplying and producing visible growth in the test system. The MIC of rFOH and BrOH was determined in the laboratory by incubating a known quantity of bacteria with a series of dilutions of the active agents and comparing their effects with those of known antimicrobial agents. Table 6 lists the representative bacterial strains and the conditions in MIC tests. Antimicrobial tests of the active agents were conducted according to “Methods for Dilution Antimicrobial Susceptibility Tests for Bacteria That Grow Aerobically” by Clinical and Laboratory Standards Institute (CLSI) (CLSI document M07-A9, 2012). In the study, methicillin/oxacillin resistant Staphylococcus aureus (MRSA) strain (ATCC 43300) was routinely under screening with 4 ug/ml oxacillin. Escherishia coli DH5α was a nonpathogenic laboratory strain. […] When the DH5α/plasmid (DH5P) colony was used, the colony was maintained in the presence of 100 ug/ml ampicillin.
# (§3) MIC tests were conducted in 96 well microtiter plates with a total volume of 150 ul broth in each well. The directly colony suspension method (CLSI document M07-A9, 2012) was applied to obtain MIC for antimicrobial tests of the active agents. After colonies were freshly incubated overnight, colonies were suspended in sterile water to adjust the inoculum to a turbidity equivalent to a 0.5 McFarland standard (corresponding to approximately 1.5×10^8 CFU/ml). Within 10 minutes, the inoculum was adjusted by dilution in broth to reach a final concentration of 5×10^5 CFU/ml. A series of various concentrations of the active agents were applied to determine the MIC. In the same microtiter plate, an internal standard formulated by a concentration series of standard antibiotic agent was incubated in parallels to allow for back-to-back comparison.
# [3] = test system: Escherishia coli DH5α; test: MIC test, broth microdilution (CLSI M07-A9); format: cell-based
# Protocol: as §2, §3
# [4] = test system: Methicillin/oxacillin resistant Staphylococcus aureus (MRSA) strain (ATCC 43300); test: MIC test, broth microdilution (CLSI M07-A9); format: cell-based
# Protocol: as §2, §3
# [5] = Stability of FOH; format: physicochemical; settings: normal temperature and pressure
# Protocol: In some embodiments, 3-fluoropropane-1,2-diol (FOH) (R^1═R^2=R^3═R^5═H, n=2, m=0 in formula I) is exemplified as an active agent of the compositions disclosed herein. FOH has two enantiomeric isomers (2r)-3-fluoropropane-1,2-diol (rFOH) and (2s)-3-fluoropropane-1,2-diol (sFOH). FOH is a nonvolatile chemical having a boiling point of 205.4° C. at 760 mm Hg, a flash point of 87.2° C., and a density of 1.192 g/cm^3. FOH is stable under normal temperature and pressure. The chemical synthesis of FOH is known in the art (Dummel et al., J. Med. Chem. 12(2): 347 (1969)). The chemical structure of FOH, representing both rFOH and sFOH, is shown below: […]
# [6] = test system: female mosquitoes; test: Membrane feeding test, death rate of female mosquitoes; format: in vivo; settings: active agent at 1%; 18 hrs fasting; membrane feeding for 1 hour and 45 minutes before sugar feeder provided
# Protocol: as §1
# This is because membrane feeding provides only a small space accessible to a limited number of mosquitoes for feeding.
# [7] = active agent at 1%, 24 hrs fasting, sugar feeder not provided
# [8] = active agent at 0.5%, 24 hrs fasting, sugar feeder not provided
# [9] = active agent at 1.5%, 24 hrs fasting, sugar feeder not provided
# [10] = active agent at 0.5%, not fasted, sugar feeder provided for free choice
# [11] = internal standard in the same microtiter plate
# [12] = Tryptic soy broth, 37° C. for 24 hrs, listed as BrOH
compound,measurement,setting,value
Nc1nc(F)nc2c1ncn2[C@@H]1O[C@H](CO)[C@@H](O)[C@H]1O [2-Fluoroadenosine],Death Rate within 24 hrs after treatment removed,[1]; [7],22% within
same,Death Rate within 2 days after treatment removed,[1]; [7],"removed, 47%"
same,Death Rate within 3 days after treatment removed,[1]; [7],"removed, 64%"
same,Death Rate within 4 days after treatment removed,[1]; [7],75-80% within
same,Death Rate within 4 days after treatment removed,"[1]; active agent at 1%, 24 hrs fasting, sugar feeder not provided, listed as 2-fluoroadenosine",75-80%
same,timing of death after ingestion (“delayed” death),[1],delayed
"CC(C)(CO)CO [2,2-Dimethyl-1,3-propanediol]",Death Rate,"[1]; active agent at 0.5%, 24 hrs fasting, sugar feeder provided for free choice",10%
"OCC1(CO)CCC1 [1,1-Bis(hydroxymethyl)cyclobutane]",Death Rate,[1]; [8],50%
"OCC(CO)c1ccccc1 [2-Penyl-1,3-propanediol]",Death Rate,[1]; [9],61%
"Nc1ccn([C@@H]2O[C@H](CO)[C@@H](O)C2(F)F)c(=O)n1 [Gemcitabine, reference compound]",Death Rate within 24 hrs after treatment removed,[1]; [10],3% within
same,Death Rate within 2 days after treatment removed,[1]; [10],"removed, 36%"
same,Death Rate within 3 days after treatment removed,[1]; [10],66%
C[C@@H](Cl)C(=O)O [(R)-(+)-2-Chloropropionic acid],Death Rate,[1]; [8],10%
"CC1(C)S[C@@H]2[C@H](NC(=O)[C@H](N)c3ccccc3)C(=O)N2[C@H]1C(=O)O [ampicillin, reference compound]",Comparable Effectiveness (standard antibiotic concentration as effective as 0.4% rFOH),[2]; [11],240 µg/mL
same,Comparable Effectiveness (standard antibiotic concentration as effective as 0.4% rFOH),[3]; [11],19 µg/mL
"OCC(O)CBr (stereo not drawn) [3-Bromopropane-1,2-diol]",MIC,[2]; [12],0.2%
same,MIC,"[4]; Mueller Hinton broth with 2% NaCl and 50 ug/ml CaCl2, 35° C. for 24 hrs, listed as BrOH",2.5%
same,MIC,[3]; [12],0.025%
same,Death Rate,"[1]; active agent at 0.15%, 24 hrs fasting, sugar feeder provided for free choice, death found for a week after treatment was removed",30-52%
same,Death Rate,"[1]; active agent at 0.2%, 24 hrs fasting, sugar feeder not provided, death found for a week after treatment was removed",>85% death
same,timing of death after ingestion (“delayed” death),[1],Delayed
"OCC(O)CCl (stereo not drawn) [3-Chloro-1,2-propanediol]",Death Rate,"[1]; active agent at 0.15%, 24 hrs fasting, sugar feeder not provided",>85%
"OC1CCCCC1O (stereo not drawn) [1,2-cyclohexanediol]",Death Rate,[1]; [8],22%
"OCC(O)CF (stereo not drawn) [FOH, 3-fluoropropane-1,2-diol]",stability,[5],stable
"OC[C@H](O)CF [sFOH, (2s)-3-fluoropropane-1,2-diol]",Death Rate,"[1]; active agent at 0.3%, 24 hrs fasting, sugar feeder not provided, death found for a week after treatment was removed",42-68%
same,Death Rate,"[1]; active agent at 0.5%, 24 hrs fasting, sugar feeder not provided, death found for a week after treatment was removed",>85% death
same,timing of death after ingestion (“delayed” death),[1],Delayed
"CO[C@@]1(NC(=O)Cc2cccs2)C(=O)N2C(C(=O)O)=C(COC(N)=O)CS[C@@H]21 [cefoxitin, reference compound]",Comparable Effectiveness (standard antibiotic concentration as effective as 0.4% rFOH),[4]; [11],48 µg/mL
Nc1nc(F)nc2nc[nH]c12 [2-Fluoroadenine],Death Rate,"[1]; active agent at 0.2%, 24 hrs fasting, sugar feeder provided for free choice",30%
"CC(CO)CO [2-Methyl-1,3-propanediol]",Death Rate,[1]; [8],12%
"CC(C)(O)C(C)(C)O [2,3-Dimethylbutane-2,3-diol]",Death Rate,[1]; [9],53%
O=c1[nH]c(=O)n([C@H]2C[C@H](O)[C@@H](CO)O2)cc1F [2′-Deoxy-5-fluorouridine],Death Rate,"[1]; active agent at 2%, 24 hrs fasting, sugar feeder not provided",24%
"NC(CO)CO [2-Amino-1,3-propanediol]",Death Rate,[1]; [8],16%
OC[C@H]1O[C@@H](O)[C@H](O)[C@@H](O)[C@@H]1F [4-Deoxy-4-fluoro-β-D-glucopyranose],Death Rate in 2 hours,[6],10% in 2
same,Death Rate in 24 hours,[6],"hours, 17%"
same,Death Rate in the first hour,[6],2% in the
